Data taken from paper PMC11855827, “High-Throughput Screening of Five Compound Libraries for Anthelmintic Activity and Toxicity Leads to the Discovery of Two Flavonoid Compounds” (International Journal of Molecular Sciences, 2025).
Where “and” joins values, the source holds several entries; their conditions need not be identical. Identical values can stand only once. Like-named read-outs stand apart in the source and are kept apart here. *1 amine or outer side, *2 acyl side, *3 side chain or, on linkers, in order; H or OH if unused. Where a SMILES comes first, the peptide text is derived from it. Bridges are numbered along the chain shown (N, C = ends). [ ]: non-standard residue; d: D form. The star is where a group is joined. Orn(4R-OH,5R-OH) = O=C([C@H](C[C@@H](O)[C@@H](O)N[*:3])N[*:1])[*:2]; Tetradecanoyl(10R,12S-Me2) = CC[C@H](C)C[C@H](C)CCCCCCCCC(=O)*; hTyr(3S-OH,4S-OH) = N[C@H](C(=O)O)[C@H](O)[C@@H](O)c1ccc(O)cc1; Gln(3R-OH) = NC(=O)C[C@@H](O)[C@H](N)C(=O)O; Pro(3S-OH) = O=C(O)[C@H]1NCC[C@@H]1O; Hyp = O=C(O)[C@@H]1C[C@@H](O)CN1

Tested on: C. elegans
[1] = Table S2, C. elegans SS assay, 110 μM, 0 h, averages of 4 data points
[2] = Table S2, C. elegans SS assay, 110 μM, 24 h, averages of 4 data points

Compound | Percentage of motility inhibition 0 h [1] [%] | Percentage of motility inhibition 24 h [2] | Percentage of motility inhibition 0 h (110 µM) [%] | Percentage of motility inhibition 24 h (110 µM) [%]
CCC(CC)[C@H](NC(C)=O)[C@@H]1[C@H](O)[C@@H](C(=O)O)C[C@H]1NC(=N)N.O.O.O [Peramivir (trihydrate)] | 2 | 0% | – | –
C=C(C)[C@@H]1CC=C(CO)CC1 [Perillyl alcohol] | 0 | 6% | – | –
COc1cc2c(cc1O)C[C@H]1c3cc(O)c(OC)cc3CC[N+]1(C)C2.[Cl-] (some centres unmarked) [Phellodendrine (chloride)] | 25 | 7% | – | –
CC(C)C[C@H](NP(=O)([O-])O[C@H]1O[C@H](C)[C@@H](O)[C@H](O)[C@@H]1O)C(=O)N[C@@H](Cc1c[nH]c2ccccc12)C(=O)[O-].[Na+].[Na+] [Phosphoramidon (Disodium)] | 19 | 7% | – | –
CNC(=O)Oc1ccc2c(c1)[C@]1(C)CCN(C)[C@@H]1N2C.O=C(O)c1ccccc1O [Physostigmine (salicylate)] | – | – | 0 | 0
COC(=O)[C@@]1(C)CC[C@]2(C(=O)O)CC[C@]3(C)C(=CC[C@@H]4[C@@]5(C)C[C@H](O)[C@H](O)[C@@](C)(CO)[C@@H]5CC[C@]43C)[C@@H]2C1 [Phytolaccagenin] | 5 | 15% | – | –
CC(C)C1=CC(=O)[C@@](C)([C@H]2[C@H](O)C[C@@]3(C)[C@@H]4CC=C5[C@@H](CC[C@@H](O[C@@H]6OC[C@@H](O)[C@H](O)[C@H]6O[C@@H]6O[C@@H](C)[C@H](O)[C@@H](O)[C@H]6O)C5(C)C)[C@]4(C)C(=O)C[C@]23C)O1 [Picfeltarraenin IA] | 5 | 2% | – | –
CC(C)C1=CC(=O)C(C)(C2C(O)CC3(C)C4CC=C5C(CCC(OC6OC(CO)C(O)C(O)C6OC6OC(C)C(O)C(O)C6O)C5(C)C)C4(C)C(=O)CC23C)O1 (centres unmarked) [Picfeltarraenin IB] | 0 | 34% | – | –
O=C1C[C@@H](c2ccccc2)Oc2cc(O[C@@H]3O[C@H](CO)[C@@H](O)[C@H](O)[C@H]3O)cc(O)c21 [Pinocembrin‐7‐O‐β‐D‐glucopyranoside] | 0 | 17% | – | –
CCN1CCN(C(=O)N[C@@H](C(=O)N[C@@H]2C(=O)N3[C@@H]2SC(C)(C)[C@@H]3C(=O)[O-])c2ccccc2)C(=O)C1=O.[Na+] [Piperacillin (sodium)] | 31 | 2% | – | –
C1CNCCN1.O.O.O.O.O.O [Piperazine (hexahydrate)] | 58 | 12% | – | –
C1CNCCN1.O=C(O)CC(O)C(=O)O (centres unmarked) [Piperazine (malate)] | 26 | 14% | – | –
C1CNCCN1.O=C(O)CCCCC(=O)O [Piperazine adipate] | 10 | 13% | – | –
COc1cc(/C=C/C(=O)N2CCC=CC2=O)cc(OC)c1OC [Piperlongumine] | 0 | 0% | – | –
Cc1cc(CC(C)CC(C)(C)C)n(O)c(=O)c1.NCCO (centres unmarked) [Piroctone olamine] | 5 | 7% | – | –
CC(C)(C)C(=O)OCOC(=O)[C@@H]1N2C(=O)[C@@H](N=CN3CCCCCC3)[C@H]2SC1(C)C.Cl [Pivmecillinam (hydrochloride)] | 12 | 0% | – | –
CC1(C)CC[C@]2(C(=O)O)[C@H](O)C[C@]3(C)C(=CC[C@@H]4[C@@]5(C)C[C@H](O)[C@H](O)C(CO)(CO)[C@@H]5CC[C@]43C)[C@@H]2C1 [Platicodigenin] | 0 | 0% | – | –
C[C@@H]1O[C@@H](O[C@H]2[C@H](OC(=O)[C@]34CCC(C)(C)C[C@H]3C3=CC[C@@H]5[C@@]6(C)C[C@H](O)[C@H](O[C@@H]7O[C@H](CO)[C@@H](O)[C@H](O)[C@H]7O)[C@](CO)(C(=O)O)[C@@H]6CC[C@@]5(C)[C@]3(C)C[C@H]4O)OC[C@H](O)[C@@H]2O)[C@H](O)[C@H](O)[C@H]1O[C@@H]1OC[C@@H](O)[C@H](O[C@@H]2OC[C@](O)(CO)[C@H]2O)[C@H]1O [Platyconic acid A] | 0 | 5% | – | –

Compound | Percentage of motility inhibition 0 h [1] [%] | Percentage of motility inhibition 24 h [2] | Percentage of motility inhibition 0 h (110 µM) [%] | Percentage of motility inhibition 24 h (110 µM) [%]
CC[C@H](C)C[C@H](C)CCCCCCCCC(=O)N[C@H]1C[C@@H](O)[C@@H](O)NC(=O)[C@@H]2[C@@H](O)CCN2C(=O)[C@H]([C@H](O)CC(N)=O)NC(=O)[C@H]([C@H](O)[C@@H](O)c2ccc(O)cc2)NC(=O)[C@@H]2C[C@@H](O)CN2C(=O)[C@H]([C@@H](C)O)NC1=O [Pneumocandin B0] ({Tetradecanoyl(10R,12S-Me2)}-[Orn(4R-OH,5R-OH)]T[Hyp][hTyr(3S-OH,4S-OH)][Gln(3R-OH)][Pro(3S-OH)]; lactam 1-C) | 0 | 0% | – | –
COc1ccc(OCc2ccc(COc3c(Cl)cccc3Cl)cc2)c(Cl)c1 [Pocapavir] | 29 | 18% | – | –
CC1(C)CCC2(C(=O)O)C(O)CC3(C)C(=CCC4C5(C)CC(O)C(O)C(C)(CO)C5CCC43C)C2C1 (centres unmarked) [Polygalacic acid] | 3 | 0% | – | –
C[C@@H]1O[C@@H](O[C@H]2[C@H](OC(=O)[C@]34CCC(C)(C)C[C@H]3C3=CC[C@@H]5[C@@]6(C)C[C@H](O)[C@H](O[C@@H]7O[C@H](CO)[C@@H](O)[C@H](O)[C@H]7O)[C@@](C)(CO)[C@@H]6CC[C@@]5(C)[C@]3(C)CC4)O[C@H](CO)[C@@H](O)[C@@H]2O)[C@H](O)[C@H](O)[C@H]1O[C@@H]1OC[C@@H](O)[C@H](O)[C@H]1O [Polygalasaponin F] | 5 | 0% | – | –
CC1(C)CC[C@]2(C(=O)O)CCC3=C(CC[C@@H]4[C@@]5(C)C[C@H](O)[C@H](O)[C@@](C)(C(=O)O)[C@@H]5CC[C@@]34C)[C@@H]2C1 [Polygalic acid] | 0 | 1% | – | –
C=C(CC[C@@H](C(=O)O)[C@H]1[C@H](O)C[C@@]2(C)C3=CC[C@H]4C(C)(C)C(=O)CC[C@]4(C)C3=CC[C@]12C)C(C)C [Polyporenic acid C] | 30 | 12% | – | –
CC(=O)[C@H]1CC[C@H]2[C@@H]3CC=C4C[C@@H](OS(=O)(=O)[O-])CC[C@]4(C)[C@H]3CC[C@]12C.[Na+] [Pregnenolone monosulfate (sodium)] | 0 | 0% | – | –
CC(=O)C1CCC2C3CC=C4CC(OS(=O)(=O)O)CCC4(C)C3CCC12C (centres unmarked) [Pregnenolone monosulfate] | 0 | 4% | – | –
CC(=O)[C@H]1CC[C@H]2[C@@H]3CC=C4C[C@@H](O)CC[C@]4(C)[C@H]3CC[C@]12C [Pregnenolone] | 11 | 4% | – | –
COc1cc(NC(C)CCCN)c2ncccc2c1.O=P(O)(O)O.O=P(O)(O)O (centres unmarked) [Primaquine (Diphosphate)] | 37 | 0% | – | –
Oc1cc(O)c2c(c1)OC1(c3ccc(O)c(O)c3)Oc3cc(O)c4c(c3C2C1O)OC(c1ccc(O)c(O)c1)C(O)C4 (centres unmarked) [Procyanidin A1] | 23 | 12% | – | –
Oc1cc(O)c2c(c1)O[C@@]1(c3ccc(O)c(O)c3)Oc3cc(O)c4c(c3[C@@H]2[C@H]1O)O[C@H](c1ccc(O)c(O)c1)[C@H](O)C4 [Procyanidin A2] | 6 | 3% | – | –
Nc1ccc2cc3ccc(N)cc3nc2c1.Nc1ccc2cc3ccc(N)cc3nc2c1.O=S(=O)(O)O [Proflavine (hemisulfate)] | 7 | 16% | – | –
CC(C)NCC(O)COc1cccc2ccccc12.Cl (centres unmarked) [Propranolol (hydrochloride)] | – | 51% and 35% | – | –
C[C@H]1O[C@@H](O[C@H]2CC[C@@]3(C)[C@@H](CC[C@]4(C)[C@@H]3C=CC3=C5CC(C)(C)CC[C@]5(CO)[C@H](O)C[C@]34C)[C@]2(C)CO)[C@H](O)[C@@H](O)[C@H]1O [Prosaikogenin D] | 15 | 54% | – | –
COC1=C(C)C(=O)O[C@]12C(=O)C(C)=C1CCCCN3[C@H]([C@@H]4C[C@H](C)C(=O)O4)CC[C@@]132 [Protostemotinine] | 0 | 22% | – | –
[Cl-].c1c2c(cc3c1OCO3)-c1cc3cc4c(cc3c[n+]1CC2)OCO4 [Pseudocoptisine (chloride)] | 0 | 14% | – | –
CC(C)(O)[C@H]1CC[C@@](C)([C@H]2CC[C@]3(C)[C@@H]2[C@H](O)C[C@@H]2[C@@]4(C)CC[C@H](O)C(C)(C)[C@@H]4[C@@H](O[C@@H]4O[C@H](CO)[C@@H](O)[C@H](O)[C@H]4O)C[C@]23C)O1 [Pseudoginsenoside RT5] | 0 | 16% | – | –
